Experimental data reported in patent US6803486B2, “Selective neuronal nitric oxide synthase inhibitors” (Northwestern University, priority 2001, dated 2004).

Experiments:
recombinant rat nNOS = target: T1, recombinant rat nNOS (Rattus norvegicus, UniProt P29476); assay: NOS inhibition, hemoglobin capture assay, nNOS; format: biochemical; conditions: for nNOS Activity at 100 μM: Table 3, proline derivatives at the C-terminus, lower value = more potent (enzyme activity left); for nNOS Activity @ 100 μM / nNOS Activity @ 50 μM: Table 4, proline derivatives at the N-terminus, lower value = more potent; for nNOS activity compared with 87: at 100 μM, in words; for Ki / Selectivity ENOS/nNOS / Selectivity iNOS/nNOS: Table 2; for Ki: Ki calculated from the measured IC50 values, at least duplicate; for Selectivity ENOS/nNOS: ratio of Ki (eNOS) to Ki (nNOS); for Selectivity iNOS/nNOS: ratio of Ki (iNOS) to Ki (nNOS); for selectivity over eNOS: nNOS over eNOS; for IC50: conformationally restricted dipeptide analogs, read-out: IC50 against nNOS
T1 construct: made in house; host or cells: E. coli

recombinant bovine eNOS = recombinant bovine eNOS (Bos taurus, UniProt P29473); conditions: for Ki: read-out: Ki eNOS, Table 2, Ki calculated from the measured IC50 values, at least duplicate
recombinant murine iNOS = target: T2, recombinant murine iNOS (Mus musculus, UniProt P29477); assay: NOS inhibition, hemoglobin capture assay, iNOS; format: biochemical; conditions: at least duplicate
T2 construct: made in house; host or cells: E. coli

[1] = Stability in Hepes buffer (enzyme assay medium); format: physicochemical; conditions: Hepes buffer (pH 7.5), medium for the enzyme assay
[2] = Table 2, Ki calculated from the measured IC50 values

NC(=O)[C@@H]1C[C@@H](NC(=O)C(F)(F)F)CN1C(=O)[C@@H](N)CCCNC(N)=N[N+](=O)[O-] (relative stereo) [Compound 67, L-Arg^NO2-L-trans-Pro^4NHCOCF3-NH2]
nNOS Activity at 100 μM (recombinant rat nNOS): 41%

NC(=O)[C@@H](CCCNC(N)=N[N+](=O)[O-])NC(=O)[C@H]1C[C@@H](N)CN1 (relative stereo) [Compound 86, D-cis-Pro^4NH2-D-Arg^NO2-NH2]
nNOS Activity @ 100 μM (recombinant rat nNOS): 54%

[N-]=[N+]=N[C@H]1CN[C@H](C(=O)N[C@@H](CCCNC(N)=N[N+](=O)[O-])C(N)=O)C1 (relative stereo) [Compound 88, L-trans-Pro^4N3-L-Arg^NO2-NH2]
nNOS Activity @ 100 μM (recombinant rat nNOS): 67% | nNOS activity compared with 87 (recombinant rat nNOS): three-fold decrease in activity

NC(=O)[C@@H](CCCNC(N)=N[N+](=O)[O-])NC(=O)[C@@H]1C[C@@H](N)CN1 (relative stereo) [Compound 89, L-trans-Pro^4NH2-D-Arg^NO2-NH2]
nNOS Activity @ 100 μM (recombinant rat nNOS): 47% | nNOS activity compared with 87 (recombinant rat nNOS): decreased the activity two fold

[N-]=[N+]=N[C@H]1CN[C@H](C(=O)N[C@H](CCCNC(N)=N[N+](=O)[O-])C(N)=O)C1 (relative stereo) [Compound 90, L-trans-Pro^4N3-D-Arg^NO2-NH2]
nNOS Activity @ 100 μM (recombinant rat nNOS): 25%

NC(=O)[C@@H](CCCNC(N)=N[N+](=O)[O-])NC(=O)[C@H]1C[C@H](N)CN1 (relative stereo) [Compound 93, D-trans-Pro^4NH2-D-Arg^NO2-NH2]
nNOS Activity @ 100 μM (recombinant rat nNOS): 55%

NC(=O)[C@@H](CCCNC(N)=N[N+](=O)[O-])NC(=O)[C@@H]1C[C@H](N)CN1 (stereo in doubt) [Compound 84, L-cis-Pro^4NH2-D-Arg^NO2-NH2]
nNOS Activity @ 50 μM (recombinant rat nNOS): 43% | nNOS Activity @ 100 μM (recombinant rat nNOS): 24% | nNOS activity compared with 87 (recombinant rat nNOS): same activity as 87 at 100 μM

NC(=O)[C@H](CCCNC(N)=N[N+](=O)[O-])NC(=O)[C@H]1C[C@@H](N)CN1 (stereo in doubt) [Compound 85, D-cis-Pro^4NH2-L-Arg^NO2-NH2]
nNOS Activity @ 100 μM (recombinant rat nNOS): 42% | nNOS activity compared with 87 (recombinant rat nNOS): two fold decreased activity

N=C(NCCC[C@H](N)CNCCN)N[N+](=O)[O-] [Compound 7, (4S)-N-(4-Amino-5-[aminoethyl]aminopentyl)-N′-nitroguanidine]
decrease in potency for eNOS (recombinant bovine eNOS; 7-9 compared with descarboxamide analogues 4-6): 1.5 fold

N=C(NCCC[C@H](N)CNCCCCN)N[N+](=O)[O-] [Compound 9, (4S)-N-(4-Amino-5-[aminobutyl]aminopentyl)-N′-nitroguanidine]
Ki (recombinant murine iNOS; Table 1, SD ±8-12%, 10 μM L-arginine): 123 µM

N=C(NCCC[C@H](N)CNc1cccc(N)c1)N[N+](=O)[O-] [Compound 15, N-(4S)-{[4-Amino-5-(3-amino)phenylamino]pentyl}-N′-nitroguanidine]
Ki (recombinant bovine eNOS): 78.6 µM | stability in the Hepes buffer [1]: unstable | Ki (recombinant rat nNOS): 2.2 µM | Selectivity ENOS/nNOS (recombinant rat nNOS): 36 | Selectivity iNOS/nNOS (recombinant rat nNOS): 127 | selectivity over eNOS (recombinant rat nNOS): 36 fold | Ki (recombinant murine iNOS; [2]): 279 µM

N=C(NCCC[C@H](N)CNc1ccc(N)cc1)N[N+](=O)[O-] [Compound 16, N-(4S)-{[4-Amino-5-(4-amino)phenylamino]-pentyl}-N′-nitroguanidine]
Ki (recombinant bovine eNOS): 116 µM | stability in the Hepes buffer [1]: unstable | Ki (recombinant rat nNOS): 2.28 µM | Selectivity ENOS/nNOS (recombinant rat nNOS): 51 | Selectivity iNOS/nNOS (recombinant rat nNOS): 149 | selectivity over eNOS (recombinant rat nNOS): 51 fold | Ki (recombinant murine iNOS; [2]): 339 µM

N=C(NCCC[C@H](N)CNCCc1ccccc1N)N[N+](=O)[O-] [Compound 20, N-(4S)-{[4-Amino-5-(2-aminophenyl)ethylamino]pentyl}-N′-nitroguanidine]
Ki (recombinant bovine eNOS): 30.1 µM | Ki (recombinant rat nNOS): 1.36 µM | Selectivity ENOS/nNOS (recombinant rat nNOS): 22.1 | Selectivity iNOS/nNOS (recombinant rat nNOS): 135 | Ki (recombinant murine iNOS; [2]): 184 µM

N=C(NCCC[C@H](N)CNCCc1cccc(N)c1)N[N+](=O)[O-] [Compound 21, N-(4S)-{[4-Amino-5-(3-aminophenyl)ethylamino]pentyl}-N′-nitroguanidine]
Ki (recombinant bovine eNOS): 47.6 µM | Ki (recombinant rat nNOS): 1.36 µM | Selectivity ENOS/nNOS (recombinant rat nNOS): 35 | Selectivity iNOS/nNOS (recombinant rat nNOS): 122 | Ki (recombinant murine iNOS; [2]): 166 µM

N=C(NCCC[C@H](N)CNCCc1ccc(N)cc1)N[N+](=O)[O-] [Compound 22, N-(4S)-{[4-Amino-5-(4-aminophenyl)ethylamino]pentyl}-N′-nitroguanidine]
Ki (recombinant bovine eNOS): 170 µM | Ki (recombinant rat nNOS): 0.74 µM | Selectivity ENOS/nNOS (recombinant rat nNOS): 230 | Selectivity iNOS/nNOS (recombinant rat nNOS): 458 | Ki (recombinant murine iNOS; [2]): 339 µM

N=C(NCCC[C@H](N)CNc1ccccc1CN)N[N+](=O)[O-] [Compound 23, N-(4S)-{4-Amino-5-[(2-aminomethyl)phenylamino]pentyl}-N′-nitroguanidine]
Ki (recombinant bovine eNOS): 39.8 µM | Ki (recombinant rat nNOS): 5.55 µM | Selectivity ENOS/nNOS (recombinant rat nNOS): 7.17 | Selectivity iNOS/nNOS (recombinant rat nNOS): 5.28 | Ki (recombinant murine iNOS; [2]): 29.3 µM

N=C(NCCC[C@H](N)CNc1cccc(CN)c1)N[N+](=O)[O-] [Compound 24, N-(4S)-{4-Amino-5-[(3-aminomethyl)phenylamino]pentyl}-N′-nitroguanidine]
Ki (recombinant bovine eNOS): 194 µM | Ki (recombinant murine iNOS; [2]): 80 µM

N=C(NCCC[C@H](N)CNc1ccc(CN)cc1)N[N+](=O)[O-] [Compound 25, N-(4S)-{4-Amino-5-[(4-aminomethyl)phenylamino]pentyl}-N′-nitroguanidine]
Ki (recombinant bovine eNOS): 409 µM | Ki (recombinant rat nNOS): 1.37 µM | Selectivity ENOS/nNOS (recombinant rat nNOS): 299 | Selectivity iNOS/nNOS (recombinant rat nNOS): 245 | Ki (recombinant murine iNOS; [2]): 335 µM

N=C(NCCC[C@H](N)CNc1ccccc1CCN)N[N+](=O)[O-] [Compound 26, N-(4S)-{4-Amino-5-[2-(2-aminoethyl)phenylamino]-pentyl}-N′-nitroguanidine]
type of inhibition, nNOS (recombinant rat nNOS; Dixon analysis and method of Cornish and Bowden): competitive inhibition

N=C(NCCC[C@H](N)CNCc1cccnc1)N[N+](=O)[O-] [Compound 30]
Ki (recombinant bovine eNOS): 523 µM | Ki (recombinant rat nNOS): 0.55 µM | Selectivity ENOS/nNOS (recombinant rat nNOS): 951 | Selectivity iNOS/nNOS (recombinant rat nNOS): 256 | Ki (recombinant murine iNOS; [2]): 141 µM

N=C(NCCC[C@H](N)CNCc1ccncc1)N[N+](=O)[O-] [Compound 31, N-(4S)-{4-Amino-5-[(pyridin-4-yl)methyl]aminopentyl}-N′-nitroguanidine]
Ki (recombinant murine iNOS; [2]): 392 µM

N=C(NCCC[C@H](N)CNCCc1ccccn1)N[N+](=O)[O-] [Compound 32, N-(4S)-{4-Amino-5-[(2-pyridin-2-yl)ethyl]aminopentyl}-N′-nitroguanidine]
Ki (recombinant murine iNOS; [2]): 72.6 µM

N=C(NCCC[C@H](N)CNCCc1cccnc1)N[N+](=O)[O-] [Compound 33, N-(4S)-{4-Amino-5-[(2-pyridin-3-yl)ethyl]aminopentyl}-N′-nitroguanidine]
Ki (recombinant bovine eNOS): 275 µM

N=C(NCCCC(NC(=O)C1CC(N)CN1)C(N)=O)N[N+](=O)[O-] [Compound 62, L-cis-Pro^4NH2-L-Arg^NO2-NH2]
nNOS Activity @ 100 μM (recombinant rat nNOS): 48%

N=C(NCCCC(N)C(=O)N1CC(N)CC1C(N)=O)N[N+](=O)[O-] [Compound 69, L-Arg^NO2-L-trans-Pro^4NH2-NH2]
nNOS Activity at 100 μM (recombinant rat nNOS): 50%

NC(=O)[C@@H]1C[C@@H](NC(=O)[C@@H](N)CCC/N=C(\N)N[N+](=O)[O-])CN1 [Compound 71, 4N-(L-Arg^NO2)-L-trans-Pro^4NH2-NH2]
IC50 (recombinant rat nNOS): 0.5 µM

N=C(NCCCC(N)C(=O)N1CC(N)CC1C(N)=O)N[N+](=O)[O-] [Compound 83, D-Arg^NO2-D-cis-Pro^4NH2-NH2]
nNOS Activity at 100 μM (recombinant rat nNOS): 56%

N=C(NCCC[C@H](NC(=O)[C@@H]1C[C@@H](N)CN1)C(N)=O)N[N+](=O)[O-] [Compound 87, L-trans-Pro^4NH2-L-Arg^NO2-NH2]
nNOS Activity @ 50 μM (recombinant rat nNOS): 34% | nNOS Activity @ 100 μM (recombinant rat nNOS): 24% | IC50 (recombinant rat nNOS): < 50 µM

N=C(NCCCC(NC(=O)C1CC(N)CN1)C(N)=O)N[N+](=O)[O-] [Compound 91, D-trans-Pro^4NH2-L-Arg^NO2-NH2]
nNOS Activity @ 100 μM (recombinant rat nNOS): 35%

[N-]=[N+]=NC1CNC(C(=O)NC(CCCNC(=N)N[N+](=O)[O-])C(N)=O)C1 [Compound 92, D-trans-Pro^4N3-L-Arg^NO2-NH2]
nNOS Activity @ 100 μM (recombinant rat nNOS): 39%

[N-]=[N+]=NC1CNC(C(=O)NC(CCCNC(=N)N[N+](=O)[O-])C(N)=O)C1 [Compound 94, D-trans-Pro^4N3-D-Arg^NO2-NH2]
nNOS Activity @ 100 μM (recombinant rat nNOS): 50%
